For 52 molecules, IC50 results are on record in patent US10336729B2, “4-cyano-benzyl carbamimidoylcarbamate derivatives and their use as AOC3 inhibitors” (Boehringer Ingelheim International GmbH, priority 2016, dated 2019).

Molecules are shown by their SMILES.

Sequence of AOC3 (Q16853 whole entry): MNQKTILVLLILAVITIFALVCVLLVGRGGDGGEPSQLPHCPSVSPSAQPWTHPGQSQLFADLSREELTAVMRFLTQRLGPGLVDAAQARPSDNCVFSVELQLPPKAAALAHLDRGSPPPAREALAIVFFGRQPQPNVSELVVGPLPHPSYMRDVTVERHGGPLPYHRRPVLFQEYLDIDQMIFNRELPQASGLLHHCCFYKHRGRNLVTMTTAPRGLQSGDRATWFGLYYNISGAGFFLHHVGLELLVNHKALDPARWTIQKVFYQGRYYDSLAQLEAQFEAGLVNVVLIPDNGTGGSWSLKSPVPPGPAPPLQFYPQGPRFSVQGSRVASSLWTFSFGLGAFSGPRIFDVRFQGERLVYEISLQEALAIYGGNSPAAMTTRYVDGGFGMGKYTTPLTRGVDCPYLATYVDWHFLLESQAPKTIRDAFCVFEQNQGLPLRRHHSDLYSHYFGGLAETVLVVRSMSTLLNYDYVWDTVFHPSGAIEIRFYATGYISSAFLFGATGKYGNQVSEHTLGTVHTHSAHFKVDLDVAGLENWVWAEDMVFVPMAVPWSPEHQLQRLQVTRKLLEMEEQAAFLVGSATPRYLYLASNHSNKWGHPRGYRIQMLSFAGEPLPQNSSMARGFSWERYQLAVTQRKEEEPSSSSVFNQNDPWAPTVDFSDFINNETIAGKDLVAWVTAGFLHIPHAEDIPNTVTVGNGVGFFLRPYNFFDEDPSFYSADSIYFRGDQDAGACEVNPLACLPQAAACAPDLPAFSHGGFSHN

The target in the assay is AOC3 (Homo sapiens (Human), UniProt Q16853). As to the kind of experiment: MAO-Glo AOC3 assay. In kind it is biochemical. The settings on record: recombinant CHO cells overexpressing AOC3 enzyme. The text has this:
The MAO-Glo™ Assay (commercial available from PROMEGA, #V1402) provides a sensitive method for the measurement of monoamine oxidase (MAO) activity (Valley, M. P. et al., 2006, Anal. Biochem. 359: 238-246) from a variety of tissues, biofluids or recombinant expressed or purified enzymes. As substrate a derivate of the beetle luciferin ((4S)-4,5-dihydro-2-(6-hydroxybenzothiazolyl)-4-thiazole-carboxylic acid) is used, which is oxidized at a primary amine moiety. After a spontaneous elimination and a catalyzed esterase reaction, the turnover of the luciferine by the luciferase is recorded as a signal of AOC3 activity.
An aliquot of 3 μL of the compound dilution is added to a 384 well plate (Optiplate, PS, flat bottom, white, PERKIN ELMER, #6007290) with a final DMSO concentration of 6.6%. Recombinant CHO cells, overexpressing the human (1500 cells/well), mouse (1000 cells/well) or rat (500 cells/well) AOC3 enzyme are diluted in reaction buffer and added in a volume of 15 μL to the wells. After incubation for 20 minutes at 37° C., 2 μL of MAO substrate (dissolved in DMSO at 16 mM, adjusted to assay concentration in reaction buffer to a final assay concentration of 20 μM) is added and further incubated for 60 minutes at 37° C. The turnover of the substrate is determined by the addition of 20 μL of the detection-mix which was generated by the addition of reconstitution buffer with esterase (PROMEGA, #V1402) to the luciferine detection reagent (PROMEGA, #V1402). After an incubation period of 20 minutes, the luminescent signal is measured with Envision 2104 Multilabel Reader (PERKIN ELMER).
As to `N#Cc1ccc(COC(=O)NC(=N)N)c(F)c1N1CC=C(c2ncco2)CC1` [Example 1.043], the half-maximal inhibitory concentration (IC50) stood at 0.017 µM.

As for `Cc1cnc(C2=CCN(c3c(C#N)ccc(COC(=O)NC(=N)N)c3F)CC2)o1` [Example 1.071], the 50% inhibitory concentration (IC50) was determined as 0.012 µM.

As to `N#Cc1cccc(C2CCN(c3c(C#N)ccc(COC(=O)NC(=N)N)c3F)CC2)c1` [Example 1.022], the IC50 was 0.005 µM.

Regarding `Cc1cnc(C2=CCN(c3c(C#N)ccc(COC(=O)NC(=N)N)c3F)CC2)nc1` [Example 1.075], the 50% inhibitory concentration (IC50) was 0.085 µM.

As for `CC(=O)N1CCC(C2CCN(c3c(C#N)ccc(COC(=O)NC(=N)N)c3F)CC2)CC1` [Example 1.014], the half-inhibitory concentration (IC50) turned out to be 0.004 µM.

With `N#Cc1ccc(COC(=O)NC(=N)N)c(F)c1N1CCC(c2nccs2)CC1` [Example 1.030], the IC50 is 0.065 µM.

`CN1CCN(C2CCN(c3c(C#N)ccc(COC(=O)NC(=N)N)c3F)CC2)C(=O)C1` [Example 1.062]: the IC50 was determined as 0.696 µM.

Take `CC1CN(c2c(C#N)ccc(COC(=O)NC(=N)N)c2F)CCN1c1ccccc1` (stereo not shown) [Example 1.070]: the half-maximal inhibitory concentration (IC50) was determined as 0.064 µM.

Take `N#Cc1ccc(COC(=O)NC(=N)N)c(F)c1N1CCC(N2CCCC2=O)CC1` [Example 1.088]: the half-maximal inhibitory concentration (IC50) was 0.889 µM.

For the molecule `CN(C)c1ccc(N2CCN(c3c(C#N)ccc(COC(=O)NC(=N)N)c3F)CC2)nn1` [Example 1.064], the concentration for half-maximal inhibition (IC50) turned out to be 0.033 µM.

For the molecule `N#Cc1ccc(COC(=O)NC(=N)N)c(F)c1N1CCN(c2ncncn2)CC1` [Example 1.082], the 50% inhibitory concentration (IC50) was 0.057 µM.

In the case of `COc1cnc(N2CCN(c3c(C#N)ccc(COC(=O)NC(=N)N)c3F)CC2)nc1` [Example 1.056], the half-maximal inhibitory concentration (IC50) came out at 0.015 µM.

`N#Cc1ccc(COC(=O)NC(=N)N)c(F)c1N1CCC(c2cccc(Cl)c2)CC1` [Example 1.076]: the IC50 worked out at 0.056 µM.

`CS(=O)(=O)c1ccc(N2CCN(c3c(C#N)ccc(COC(=O)NC(=N)N)c3F)CC2)cc1` [Example 1.002]: the half-maximal inhibitory concentration (IC50) was determined as 0.006 µM.

Consider `N#Cc1ccc(COC(=O)NC(=N)N)c(F)c1N1CCC(c2ccc(F)cc2)CC1` [Example 1.031], for which the IC50 was found to be 0.07 µM.

Turning to `N#Cc1ccc(COC(=O)NC(=N)N)c(F)c1N1CCC(N2CCC(C(N)=O)CC2)CC1` [Example 1.024], the IC50 amounted to 0.05 µM.

As for `CS(=O)(=O)N1CCC(C2CN(c3c(C#N)ccc(COC(=O)NC(=N)N)c3F)C2)CC1` [Example 1.004], the 50% inhibitory concentration (IC50) amounted to 0.024 µM.

Regarding `Cc1ccc(N2CCN(c3c(C#N)ccc(COC(=O)NC(=N)N)c3F)CC2)nc1` [Example 1.039], the IC50 amounted to 0.042 µM.

Turning to `N#Cc1ccc(COC(=O)NC(=N)N)c(F)c1N1CCN(c2ccnnc2)CC1` [Example 1.006], the half-maximal inhibitory concentration (IC50) worked out at 0.005 µM.

Turning to `CCOc1ccc(C2CCN(c3c(C#N)ccc(COC(=O)NC(=N)N)c3F)CC2)cn1` [Example 1.080], the half-maximal inhibitory concentration (IC50) turned out to be 0.02 µM.

As for `CN(C)Cc1ccc(C2CCN(c3c(C#N)ccc(COC(=O)NC(=N)N)c3F)CC2)cc1` [Example 1.044], the IC50 came to 0.01 µM.

On to `N#Cc1ccc(COC(=O)NC(=N)N)c(F)c1N1CC=C(c2ccc(F)cc2)CC1` [Example 1.033], for which the IC50 was found to be 0.024 µM.

Consider `CS(=O)(=O)c1ccc(N2CCN(c3c(C#N)ccc(COC(=O)NC(=N)N)c3F)CC2)c(F)c1` [Example 1.042], for which the half-maximal inhibitory concentration (IC50) turned out to be 0.046 µM.

With `N#Cc1ccc(COC(=O)NC(=N)N)c(F)c1N1CC=C(c2ccc(Cl)cc2)CC1` [Example 1.057], the 50% inhibitory concentration (IC50) turned out to be 0.006 µM.

For the molecule `CCc1ccc(N2CCN(c3c(C#N)ccc(COC(=O)NC(=N)N)c3F)CC2)cc1` [Example 1.060], the IC50 is 0.334 µM.

In the case of `CC(=O)N1CCC(C2CN(c3c(C#N)ccc(COC(=O)NC(=N)N)c3F)C2)CC1` [Example 1.010], the IC50 came to 0.025 µM.

In the case of `Cc1cc(C)cc(N2CCN(c3c(C#N)ccc(COC(=O)NC(=N)N)c3F)CC2)c1` [Example 1.052], the IC50 was found to be 0.146 µM.

`N#Cc1ccc(COC(=O)NC(=N)N)c(F)c1N1CCC(c2ccc(C(F)(F)F)cc2)CC1` [Example 1.084]: the concentration for half-maximal inhibition (IC50) was 0.502 µM.

Turning to `N#Cc1ccc(COC(=O)NC(=N)N)c(F)c1N1CC(c2ccccn2)C1` [Example 1.087], the IC50 stood at 0.47 µM.

On to `N#Cc1ccc(COC(=O)NC(=N)N)c(F)c1N1CCC(c2ccccc2)CC1` [Example 1.029], for which the IC50 came out at 0.071 µM.

As for `N#Cc1ccc(COC(=O)NC(=N)N)c(F)c1N1CCC(O)(c2ccccc2)CC1` [Example 1.085], the IC50 turned out to be 0.28 µM.

In the case of `CS(=O)(=O)N1CCC(C2CCN(c3c(C#N)ccc(COC(=O)NC(=N)N)c3F)CC2)CC1` [Example 1.017], the IC50 amounted to 0.005 µM.

As to `N#Cc1ccc(COC(=O)NC(=N)N)c(F)c1N1CCN(c2ncccn2)CC1` [Example 1.081], the IC50 turned out to be 0.045 µM.

For the molecule `COc1ccc(C2CCN(c3c(C#N)ccc(COC(=O)NC(=N)N)c3F)CC2)cc1` [Example 1.048], the IC50 worked out at 0.082 µM.

Turning to `CCOc1cc(C2CCN(c3c(C#N)ccc(COC(=O)NC(=N)N)c3F)CC2)ccn1` [Example 1.016], the IC50 came to 0.012 µM.

Take `N#Cc1ccc(COC(=O)NC(=N)N)c(F)c1N1CCN(C2CCOCC2)CC1` [Example 1.038]: the concentration for half-maximal inhibition (IC50) stood at 0.579 µM.

Consider `COc1cnc(C2=CCN(c3c(C#N)ccc(COC(=O)NC(=N)N)c3F)CC2)nc1` [Example 1.067], for which the IC50 turned out to be 0.077 µM.

Turning to `N#Cc1ccc(COC(=O)NC(=N)N)c(F)c1N1CCC(c2nnco2)CC1` [Example 2.006], the IC50 stood at 0.033 µM.

For the molecule `N#Cc1ccc(N2CCN(c3cc(COC(=O)NC(=N)N)c(F)cc3C#N)CC2)cc1` [Example 3.001], the IC50 was 0.393 µM.

As for `N#Cc1ccc(COC(=O)NC(=N)N)c(F)c1N1CCC(C2CCOCC2)CC1` [Example 1.054], the IC50 was 0.02 µM.

Turning to `N#Cc1ccc(COC(=O)NC(=N)N)c(F)c1N1CCN(c2ccccc2F)CC1` [Example 1.059], the IC50 is 0.151 µM.

As to `N#Cc1ccc(COC(=O)NC(=N)N)c(F)c1N1CCC(C2CCN(S(N)(=O)=O)CC2)CC1` [Example 1.079], the IC50 is 0.009 µM.

Regarding `N#Cc1ccc(COC(=O)NC(=N)N)c(F)c1N1CCN(c2ccc(Cl)cn2)CC1` [Example 1.078], the IC50 amounted to 0.007 µM.

For the molecule `N#Cc1ccc(COC(=O)NC(=N)N)c(F)c1N1CCCN(c2cccnc2)CC1` [Example 1.011], the IC50 is 0.095 µM.

As to `N#Cc1ccc(COC(=O)NC(=N)N)c(F)c1N1CCN(c2ccccc2)C(=O)C1` [Example 1.065], the half-maximal inhibitory concentration (IC50) was 0.131 µM.

For `N#Cc1ccc(COC(=O)NC(=N)N)c(F)c1N1CC=C(c2ccccc2)CC1` [Example 1.046], the half-maximal inhibitory concentration (IC50) amounted to 0.027 µM.

As to `CN(C)C(=O)c1ccc(N2CCN(c3c(C#N)ccc(COC(=O)NC(=N)N)c3F)CC2)cc1` [Example 1.026], the IC50 worked out at 0.07 µM.

Take `N#Cc1ccc(COC(=O)NC(=N)N)c(F)c1N1CCN(c2cccnn2)CC1` [Example 1.083]: the IC50 was determined as 0.034 µM.

Take `N#Cc1ccc(COC(=O)NC(=N)N)c(F)c1N1CCN(c2ncc(F)cn2)CC1` [Example 1.069]: the concentration for half-maximal inhibition (IC50) was 0.027 µM.

`Cc1ccc(N2CCN(c3c(C#N)ccc(COC(=O)NC(=N)N)c3F)CC2)cc1` [Example 1.041]: the IC50 worked out at 0.177 µM.

`COc1ncc(N2CCN(c3cc(COC(=O)NC(=N)N)cc(F)c3C#N)CC2)cn1` [Example 1.020]: the IC50 was determined as 0.07 µM.

As for `CC(=O)N1CCN(C2CCN(c3c(C#N)ccc(COC(=O)NC(=N)N)c3F)CC2)CC1` [Example 1.003], the half-inhibitory concentration (IC50) was 0.067 µM.

As a reminder, the IC50 is the point on the concentration scale where inhibition reaches its midpoint.
